Results on 35 molecules are retold here after patent US7425557B2, “Inhibitors of glycogen synthase kinase 3” (Novartis Vaccines and Diagnostics, Inc., priority 1998, dated 2008).

In this test the target is human GSK3β (Homo sapiens, UniProt P49841). Briefly: Screening for GSK3 inhibitory activity using a cell-free assay. Type of test: biochemical. As to conditions: read-out: IC50 with respect to GSK3. An outline of the steps:
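Radiometric cell-free assay with recombinant human GSK3β phosphorylating a biotinylated peptide substrate for 3 h. Reactions were stopped with 50 μM ATP/20 mM EDTA and captured on streptavidin plates. Incorporated radiolabel was counted by scintillation and plotted against compound concentration.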

Sequence of human GSK3β (P49841 whole entry): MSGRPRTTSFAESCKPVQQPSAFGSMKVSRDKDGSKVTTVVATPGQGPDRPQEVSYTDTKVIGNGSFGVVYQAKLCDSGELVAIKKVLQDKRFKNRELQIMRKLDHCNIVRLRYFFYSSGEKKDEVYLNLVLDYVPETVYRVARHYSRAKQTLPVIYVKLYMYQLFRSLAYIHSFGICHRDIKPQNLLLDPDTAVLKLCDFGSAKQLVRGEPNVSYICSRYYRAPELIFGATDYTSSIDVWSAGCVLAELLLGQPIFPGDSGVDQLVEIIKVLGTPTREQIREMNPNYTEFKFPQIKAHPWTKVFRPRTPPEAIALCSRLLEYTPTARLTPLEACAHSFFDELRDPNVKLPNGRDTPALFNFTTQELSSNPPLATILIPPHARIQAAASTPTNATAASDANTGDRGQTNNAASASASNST

One may read the IC50 as the concentration that inhibits the measured activity by half. Regarding `O=C(NCc1ccc(F)c(F)c1)c1ccc(-c2ccnc(NCCNc3ccc([N+](=O)[O-])cn3)n2)cc1` [N-[(3,4-difluorophenyl)methyl]{4-[2-({2-[(5-nitro(2-pyridyl))amino]ethyl}amino)pyrimidin-4-yl]phenyl}carboxamide], the IC50 is no more than 10 µM.
Under `COc1ccc(CNC(=O)c2ccc(-c3ccnc(NCCNc4ccc([N+](=O)[O-])cn4)n3)cc2)cc1OC` [N-[(3,4-dimethoxyphenyl)methyl]{4-[2-({2-[(5-nitro(2-pyridyl))amino]ethyl}amino)pyrimidin-4-yl]phenyl}carboxamide] stands no more than 10 µM; under `O=C(NCc1cc(Cl)cc(Cl)c1)c1ccc(-c2ccnc(NCCNc3ccc([N+](=O)[O-])cn3)n2)cc1` [N-[(3,5-dichlorophenyl)methyl]{4-[2-({2-[(5-nitro(2-pyridyl))amino]ethyl}amino)pyrimidin-4-yl]phenyl}carboxamide], no more than 10 µM.
As to `O=C(NCc1cccc(Br)c1)c1ccc(-c2ccnc(NCCNc3ccc([N+](=O)[O-])cc3)n2)cc1` [N-[(3-bromophenyl)-methyl]{4-[2-({2-[(4-nitrophenyl)amino]ethyl}amino)pyrimidin-4-yl]phenyl}carboxamide], the IC50 is no more than 10 µM.
`O=C(NCc1cccc(Br)c1)c1ccc(-c2ccnc(NCCNc3ccc(C(F)(F)F)cn3)n2)cc1` [N-[(3-bromophenyl)methyl](4-{2-[(2-{[5-(trifluoromethyl)(2-pyridyl)]amino}ethyl)amino]pyrimidin-4-yl}phenyl)-carboxamide]: the IC50 is no more than 10 µM.
The figure for `O=C(NCc1cccc(Br)c1)c1ccc(-c2ccnc(NCCNc3ccc4ccccc4n3)n2)cc1` [N-[(3-bromophenyl)methyl][4-(2-{[2-(2-quinolylamino)ethyl]amino}pyrimidin-4-yl)phenyl]carboxamide] is no more than 10 µM.
The figure for `COc1cccc(CCNc2nccc(-c3ccc(C(=O)NCc4cccc(Br)c4)cc3)n2)c1` [N-[(3-bromophenyl)methyl][4-(2-{[2-(3-methoxyphenyl)ethyl]amino}pyrimidin-4-yl)phenyl]carboxamide] is no more than 10 µM; for `O=C(NCc1cccc(Br)c1)c1ccc(-c2ccnc(NCCNc3ncccn3)n2)cc1` [N-[(3-bromophenyl)methyl][4-(2-{[2-(pyrimidin-2-ylamino)ethyl]amino}pyrimidin-4-yl)phenyl]carboxamide] it is no more than 1 µM.
Consider `N#Cc1ccc(NCCNc2nccc(-c3ccc(C(=O)NCc4cccc(Br)c4)cc3)n2)nc1` [N-[(3-bromophenyl)methyl]{4-[2-({2-[(5-cyano(2-pyridyl))amino]ethyl}-amino)pyrimidin-4-yl]phenyl}carboxamide], for which the IC50 was no more than 1 µM.
Regarding `O=C(NCc1cccc(Br)c1)c1ccc(-c2ccnc(NCCNc3ccc([N+](=O)[O-])cn3)n2)cc1` [N-[(3-bromophenyl)methyl]{4-[2-({2-[(5-nitro(2-pyridyl))amino]ethyl}amino)pyrimidin-4-yl]phenyl}carboxamide], the IC50 was no more than 10 µM.
The figure for `COc1cccc(NCCNc2nccc(-c3ccc(C(=O)NCc4cccc(Br)c4)cc3)n2)n1` [N-[(3-bromophenyl)methyl]{4-[2-({2-[(6-methoxy(2-pyridyl))amino]ethyl}amino)pyrimidin-4-yl]phenyl}carboxamide] is no more than 10 µM.
The figure for `O=C(NCc1cccc(Br)c1)c1ccc(-c2ccnc(NCCCNc3ccc([N+](=O)[O-])cn3)n2)cc1` [N-[(3-bromophenyl)methyl]{4-[2-({3-[(5-nitro(2-pyridyl))-amino]propyl}amino)pyrimidin-4-yl]phenyl}carboxamide] is no more than 10 µM; for `O=C(NCc1cccc(Cl)c1)c1ccc(-c2ccnc(NCCNc3ccc([N+](=O)[O-])cn3)n2)cc1` [N-[(3-chlorophenyl)methyl]{4-[2-({2-[(5-nitro(2-pyridyl))amino]ethyl}amino)pyrimidin-4-yl]-phenyl}carboxamide] it is no more than 10 µM; for `O=C(NCc1cccc(F)c1)c1ccc(-c2ccnc(NCCNc3ccc([N+](=O)[O-])cn3)n2)cc1` [N-[(3-fluorophenyl)methyl]{4-[2-({2-[(5-nitro(2-pyridyl))amino]ethyl}amino)pyrimidin-4-yl]-phenyl}carboxamide] it is no more than 10 µM.
In the case of `O=C(NCc1cccc(I)c1)c1ccc(-c2ccnc(NCCNc3ccc([N+](=O)[O-])cn3)n2)cc1` [N-[(3-iodophenyl)methyl]{4-[2-({2-[(5-nitro(2-pyridyl))amino]ethyl}amino)pyrimidin-4-yl]phenyl}carboxamide], the IC50 was no more than 10 µM.
The figure for `COc1cccc(CNC(=O)c2ccc(-c3ccnc(NCCNc4ccc([N+](=O)[O-])cn4)n3)cc2)c1` [N-[(3-methoxyphenyl)methyl]{4-[2-({2-[(5-nitro(2-pyridyl))amino]ethyl}amino)pyrimidin-4-yl]phenyl}carboxamide] is no more than 1 µM; for `Cc1cccc(CNC(=O)c2ccc(-c3ccnc(NCCNc4ccc([N+](=O)[O-])cn4)n3)cc2)c1` [N-[(3-methylphenyl)methyl){4-[2-({2-[(5-nitro(2-pyridyl))amino]ethyl}amino)pyrimidin-4-yl]phenyl}carboxamide] it is no more than 10 µM.
The figure for `O=C(NCc1ccc(Br)cc1)c1ccc(-c2ccnc(NCCNc3ccc([N+](=O)[O-])cn3)n2)cc1` [N-[(4-bromophenyl)methyl]{4-[2-({2-[(5-nitro(2-pyridyl))-amino]ethyl}amino)pyrimidin-4-yl]phenyl}carboxamide] is no more than 10 µM.
Take `O=C(NCc1ccc(F)cc1)c1ccc(-c2ccnc(NCCNc3ccc([N+](=O)[O-])cn3)n2)cc1` [N-[(4-fluorophenyl)methyl]{4-[2-({2-[(5-nitro(2-pyridyl))amino]ethyl}amino)pyrimidin-4-yl]phenyl}carboxamide]: the IC50 was no more than 10 µM.
Under `COc1ccc(CNC(=O)c2ccc(-c3ccnc(NCCNc4ccc([N+](=O)[O-])cn4)n3)cc2)cc1` [N-[(4-methoxyphenyl)methyl]{4-[2-({2-[(5-nitro(2-pyridyl))amino]ethyl}-amino)pyrimidin-4-yl]phenyl}carboxamide] stands no more than 10 µM; under `Cc1cnc(CNC(=O)c2ccc(-c3ccnc(NCCNc4ccc([N+](=O)[O-])cn4)n3)cc2)cn1` [N-[(5-methylpyrazin-2-yl)methyl]{4-[2-({2-[(5-nitro(2-pyridyl))amino]ethyl}amino)pyrimidin-4-yl]phenyl}carboxamide], no more than 10 µM.
Consider `O=C(NCc1ccccc1)c1ccc(-c2ccnc(NCCc3ccccn3)n2)cc1` [N-benzyl(4-{2-[(2-(2-pyridyl)ethyl)amino]pyrimidin-4-yl}phenyl)carboxamide], for which the 50% inhibitory concentration (IC50) was no more than 10 µM.
The figure for `CCCCNC(=O)c1cnc(NCCNc2ccc([N+](=O)[O-])cn2)nc1-c1ccc(C#N)cc1` [N-butyl[4-(4-cyanophenyl)-2-({2-[(5-nitro(2-pyridyl))amino]ethyl}amino)pyrimidin-5-yl]carboxamide] is no more than 1 µM; for `CC(=O)Nc1ccc(-c2ccnc(NCCNc3ccc([N+](=O)[O-])cn3)n2)cc1` [N-{4-[2-({2-[(5-nitro-2-pyridyl)amino]ethyl}amino)-pyrimidin-4-yl]phenyl}acetamide] it is no more than 10 µM; for `COc1ccc(OC)c(CCNc2nccc(-c3cccnc3)n2)c1` [[2-(2,5-dimethoxyphenyl)ethyl](4-(3-pyridyl)pyrimidin-2-yl)amine] it is no more than 10 µM.
Under `c1ccc(NCCNc2nccc(-c3cccnc3)n2)nc1` [[2-(2-pyridylamino)ethyl](4-(3-pyridyl)pyrimidin-2-yl)amine] stands no more than 10 µM; under `FC(F)(F)Oc1ccc(-c2ccnc(NCCNc3ccccn3)n2)cc1` [[2-(2-pyridylamino)ethyl]{4-[4-(trifluoromethoxy)-phenyl]pyrimidin-2-yl}amine], no more than 10 µM; under `CN(C)CCOC(=O)Nc1cnc(NCCNc2ccc([N+](=O)[O-])cn2)nc1-c1ccc(C#N)cc1` [[2-(dimethyl-amino)ethoxy]-N-[4-(4-cyanophenyl)-2-({2-[(5-nitro(2-pyridyl))amino]ethyl}amino)-pyrimidin-5-yl]carboxamide], no more than 1 µM.
The figure for `O=[N+]([O-])c1ccc(NCCNc2nccc(NCc3ccccc3)n2)nc1` [[2-({2-[(5-nitro(2-pyridyl))amino]ethyl}amino)pyrimidin-4-yl]benzylamine] is no more than 10 µM.
As to `Nc1nc(NCCNc2ncc(CO)c(-c3ccc(Cl)cc3Cl)n2)ccc1[N+](=O)[O-]` [[2-({2-[(6-amino-5-nitro(2-pyridyl))amino]ethyl}amino)-4-(2,4-dichlorophenyl)pyrimidin-5-yl]methan-1-ol], the IC50 is no more than 1 µM.
Under `O=[N+]([O-])c1ccc(NCCNc2ncc(CO)c(-c3ccc(Cl)cc3Cl)n2)nc1` [[4-(2,4-dichlorophenyl)-2-({2-[(5-nitro(2-pyridyl))amino]ethyl}amino)-pyrimidin-5-yl]methan-1-ol] stands no more than 1 µM; under `Cn1ccnc1-c1cnc(NCCNc2ccc([N+](=O)[O-])cn2)nc1-c1ccc(Cl)cc1Cl` [[4-(2,4-dichlorophenyl)-5-(1-methylimidazol-2-yl)pyrimidin-2-yl]{2-[(5-nitro(2-pyridyl))amino]-ethyl}amine], no more than 1 µM.
Under `Cc1cn(-c2cnc(NCCNc3ccc([N+](=O)[O-])cn3)nc2-c2ccc(Cl)cc2Cl)c(C)n1` [[4-(2,4-dichlorophenyl)-5-(2,4-dimethylimidazolyl)pyrimidin-2-yl]{2-[(5-nitro(2-pyridyl))amino]ethyl}amine] stands no more than 1 µM; under `Cc1nccn1-c1cnc(NCCNc2ccc([N+](=O)[O-])cn2)nc1-c1ccc(Cl)cc1Cl` [[4-(2,4-dichlorophenyl)-5-(2-methylimidazolyl)pyrimidin-2-yl]{2-[(5-nitro(2-pyridyl))amino]ethyl}amine], no more than 1 µM.
On to `Cc1c[nH]c(-c2cnc(NCCNc3ccc([N+](=O)[O-])cn3)nc2-c2ccc(Cl)cc2Cl)n1` [[4-(2,4-dichlorophenyl)-5-(4-methylimidazol-2-yl)pyrimidin-2-yl]{2-[(5-nitro(2-pyridyl))amino]ethyl}amine], for which the 50% inhibitory concentration (IC50) is no more than 1 µM.
